# From patent US20060030616A1, “Anhydride modified cantharidin analogues useful in the treatment of cancer” (priority 1998, published 2006)
# Legend:
# 143B cells = experiment: MTT cytotoxicity assay, 72 h; assay type: cell-based, human; conditions: p53 mt, read-out: IC50 (mean ± SE) after 72 h continuous exposure
# Method in brief: (§1)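 Seeding 1000 cells/well (L1210) or 2000-25000 cells/well (others); 24 h pre-growth; inhibitor exposure 72 h, triplicate; MTT read-out at 540 nm; IC50 = concentration giving 50% growth inhibition vs day 0/day 3 OD difference.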
# ADDP cells = experiment: MTT cytotoxicity assay, 72 h; assay type: cell-based, human; conditions: p53 mt, read-out: IC50 (mean ± SE) after 72 h continuous exposure
# Method in brief: as §1
# HCT116 cells = experiment: MTT cytotoxicity assay, 72 h; assay type: cell-based, human; conditions: HCT116, p53 wt; read-out: IC50 (mean ± SE) after 72 h continuous exposure
# Method in brief: as §1
# HL60 cells [1] = experiment: MTT cytotoxicity assay, 72 h; assay type: cell-based, human; conditions: HL60, p53 nul; read-out: IC50 (mean ± SE) after 72 h continuous exposure
# Method in brief: as §1
# HT29 cells [2] = experiment: MTT cytotoxicity assay, 72 h; assay type: cell-based, human; conditions: HT29, p53 mt; read-out: IC50 (mean ± SE) after 72 h continuous exposure
# Method in brief: as §1
# SW480 cells = experiment: MTT cytotoxicity assay, 72 h; assay type: cell-based, human; conditions: SW480, p53 mt; read-out: IC50 (mean ± SE) after 72 h continuous exposure
# Method in brief: as §1
# WiDr cells = experiment: MTT cytotoxicity assay, 72 h; assay type: cell-based, human; conditions: p53 mt, read-out: IC50 (mean ± SE) after 72 h continuous exposure
# Method in brief: as §1
# L1210 cells = experiment: Cell cycle analysis, flow cytometry of propidium iodide stained cells; assay type: cell-based, murine
# Protocol: (§2) The cells are fixed in 70% ethanol and stored at −20° C. until analysis is performed (1-2 weeks). After fixing, the cells are pelleted and incubated in PBS containing propidium iodide ([…]) and RNase A (200 mg/ml) for at least 30 min at room temperature. The samples (2×10^4 events) are analysed using a Becton Dickson FACScan, fluorescence is collected in fluorescence detector 2 (FL2), filter 575/30 nm band pass. Cell cycle distribution is assessed using Cell Quest software (Becton Dickson).
# (§3) The ability of the protein phosphatase inhibitors to abrogate the G1 or G2 checkpoint of the cell cycle may be determined by cell cycle analysis using flow cytometry. Briefly, asynchronous cell cultures are harvested 18 h after 6 Gy irradiation and/or 12 h incubation with the protein phosphatase inhibitor. Depending upon the p53 status of the cell line, radiation treatment alone will induce arrest in either G1 and/or G2 phase of the cell cycle.
# (§4) Data shown in Table 2 and FIG. 4 show the cell cycle response of L1210, HL60, HT29 and HCT116 cells to cantharidin and the new cantharidin analogues MK-2 and MK-4 after 12 h exposure. In summary, cantharidin and MK-2 produced a similar response and induced G2 arrest in all four cell lines tested. […] HL60 and HCT116 cells. […] The magnitude of the cell cycle arrest induced by these drugs directly correlated with their cytotoxicity in the respective cell lines. […] The cytotoxicity of the […]
# HL60 cells [3] = experiment: as above; assay type: cell-based, human
# Protocol: as §2, §3, §4
# HT29 cells [4] = experiment: as above; assay type: cell-based, human; conditions: 12 h
# Protocol: as §2, §3, §4
structure (smiles),measurement,setting,value
O=C1OC(O)C2C3CCC(O3)C12 (stereo not drawn) [MK-4],IC50,143B cells,450 µM
same,IC50,ADDP cells,275 ± 56 µM
same,IC50,HCT116 cells,78 ± 7 µM
same,IC50,HL60 cells [1],393 ± 103 µM
same,IC50,HT29 cells [2],14 µM
same,IC50,SW480 cells,88 ± 5 µM
same,IC50,WiDr cells,15 ± 3 µM
same,"Cell Cycle Distribution, G1","L1210 cells; L1210, 50 μM, 12 h",42.0 percentage of total
same,"Cell Cycle Distribution, G2 + M","L1210 cells; L1210, 50 μM, 12 h",32.0 percentage of total
same,"Cell Cycle Distribution, S","L1210 cells; L1210, 50 μM, 12 h",26.9 percentage of total
same,"Cell Cycle Distribution, sub G1","L1210 cells; L1210, 50 μM, 12 h",0.5 percentage of total
same,"Cell Cycle Distribution, G1","L1210 cells; L1210, 100 μM, 12 h",43.2 percentage of total
same,"Cell Cycle Distribution, G2 + M","L1210 cells; L1210, 100 μM, 12 h",32.5 percentage of total
same,"Cell Cycle Distribution, S","L1210 cells; L1210, 100 μM, 12 h",25.4 percentage of total
same,"Cell Cycle Distribution, sub G1","L1210 cells; L1210, 100 μM, 12 h",0.4 percentage of total
same,"Cell Cycle Distribution, G1","L1210 cells; L1210, 250 μM, 12 h",45.7 percentage of total
same,"Cell Cycle Distribution, G2 + M","L1210 cells; L1210, 250 μM, 12 h",30.5 percentage of total
same,"Cell Cycle Distribution, S","L1210 cells; L1210, 250 μM, 12 h",24.6 percentage of total
same,"Cell Cycle Distribution, sub G1","L1210 cells; L1210, 250 μM, 12 h",0.5 percentage of total
same,"Cell Cycle Distribution, G1","L1210 cells; L1210, 500 μM, 12 h",47.5 percentage of total
same,"Cell Cycle Distribution, G2 + M","L1210 cells; L1210, 500 μM, 12 h",33.9 percentage of total
same,"Cell Cycle Distribution, S","L1210 cells; L1210, 500 μM, 12 h",18.6 percentage of total
same,"Cell Cycle Distribution, sub G1","L1210 cells; L1210, 500 μM, 12 h",1.1 percentage of total
same,Cell cycle remark,"L1210 cells; L1210, 500 μM, 12 h",Slight Δ
same,Cell cycle response,"L1210 cells; L1210, 12 h exposure",G2 arrest
same,"Cell Cycle Distribution, G1","HL60 cells [3]; HL60, 50 μM, 12 h",44.7 percentage of total
same,"Cell Cycle Distribution, G2 + M","HL60 cells [3]; HL60, 50 μM, 12 h",32.3 percentage of total
same,"Cell Cycle Distribution, S","HL60 cells [3]; HL60, 50 μM, 12 h",22.3 percentage of total
same,"Cell Cycle Distribution, sub G1","HL60 cells [3]; HL60, 50 μM, 12 h",1.9 percentage of total
same,"Cell Cycle Distribution, G1","HL60 cells [3]; HL60, 100 μM, 12 h",45.3 percentage of total
same,"Cell Cycle Distribution, G2 + M","HL60 cells [3]; HL60, 100 μM, 12 h",30.6 percentage of total
same,"Cell Cycle Distribution, S","HL60 cells [3]; HL60, 100 μM, 12 h",22.6 percentage of total
same,"Cell Cycle Distribution, sub G1","HL60 cells [3]; HL60, 100 μM, 12 h",2.5 percentage of total
same,"Cell Cycle Distribution, G1","HL60 cells [3]; HL60, 250 μM, 12 h",40.0 percentage of total
same,"Cell Cycle Distribution, G2 + M","HL60 cells [3]; HL60, 250 μM, 12 h",32.0 percentage of total
same,"Cell Cycle Distribution, S","HL60 cells [3]; HL60, 250 μM, 12 h",23.0 percentage of total
same,"Cell Cycle Distribution, sub G1","HL60 cells [3]; HL60, 250 μM, 12 h",6.0 percentage of total
same,"Cell Cycle Distribution, G1","HL60 cells [3]; HL60, 500 μM, 12 h",27.8 percentage of total
same,"Cell Cycle Distribution, G2 + M","HL60 cells [3]; HL60, 500 μM, 12 h",44.4 percentage of total
same,"Cell Cycle Distribution, S","HL60 cells [3]; HL60, 500 μM, 12 h",22.8 percentage of total
same,"Cell Cycle Distribution, sub G1","HL60 cells [3]; HL60, 500 μM, 12 h",6.1 percentage of total
same,Cell cycle remark,"HL60 cells [3]; HL60, 500 μM, 12 h",G2 arrest
same,Cell cycle response,"HL60 cells [3]; HL60, 12 h exposure",G2 arrest
same,"Cell Cycle Distribution, G1","HT29 cells [4]; HT29, 50 μM",51.4 percentage of total
same,"Cell Cycle Distribution, G2 + M","HT29 cells [4]; HT29, 50 μM",31.6 percentage of total
same,"Cell Cycle Distribution, S","HT29 cells [4]; HT29, 50 μM",12.3 percentage of total
same,"Cell Cycle Distribution, sub G1","HT29 cells [4]; HT29, 50 μM",4.7 percentage of total
same,"Cell Cycle Distribution, G1","HT29 cells [4]; HT29, 100 μM",52.3 percentage of total
same,"Cell Cycle Distribution, G2 + M","HT29 cells [4]; HT29, 100 μM",29.4 percentage of total
same,"Cell Cycle Distribution, S","HT29 cells [4]; HT29, 100 μM",12.5 percentage of total
same,"Cell Cycle Distribution, sub G1","HT29 cells [4]; HT29, 100 μM",6.0 percentage of total
same,"Cell Cycle Distribution, G1","HT29 cells [4]; HT29, 250 μM",53.2 percentage of total
same,"Cell Cycle Distribution, G2 + M","HT29 cells [4]; HT29, 250 μM",27.6 percentage of total
same,"Cell Cycle Distribution, S","HT29 cells [4]; HT29, 250 μM",11.9 percentage of total
same,"Cell Cycle Distribution, sub G1","HT29 cells [4]; HT29, 250 μM",7.0 percentage of total
same,"Cell Cycle Distribution, G1","HT29 cells [4]; HT29, 500 μM",53.7 percentage of total
same,"Cell Cycle Distribution, G2 + M","HT29 cells [4]; HT29, 500 μM",29.1 percentage of total
same,"Cell Cycle Distribution, S","HT29 cells [4]; HT29, 500 μM",14.1 percentage of total
same,"Cell Cycle Distribution, sub G1","HT29 cells [4]; HT29, 500 μM",3.4 percentage of total
same,Cell cycle remark,"HT29 cells [4]; HT29, 500 μM",G1 arrest
